# Measurements published in PMC11620503 (Antimicrobial Agents and Chemotherapy, 2024).
# Read-outs that look alike come from different tables or passages of the source.
# What was measured:
# [1] = system: 207 Enterobacterales including carbapenem-resistant isolates; assay: MIC, broth microdilution; type: cell-based
# [2] = system: MBL-producing isolates (Enterobacterales); assay: MIC, broth microdilution; type: cell-based; settings: for MIC50 / MIC90: fixed concentration (μg/mL) in label; for MIC50: read-out: MIC50; for MIC90: read-out: MIC90
# [3] = system: 55 isolates of A. baumannii; assay: MIC, broth microdilution; type: cell-based, Acinetobacter baumannii
# 96 P. aeruginosa = assay: MIC, broth microdilution; type: cell-based, Pseudomonas aeruginosa
# [4] = system: MEM-, imipenem/relebactam-, and ceftolozane/tazobactam-nonsusceptible P. aeruginosa; assay: MIC, broth microdilution; type: cell-based, Pseudomonas aeruginosa; settings: for CLSI MIC interpretation I (intermediate) / CLSI MIC interpretation R (resistant) / CLSI MIC interpretation S (susceptible): CLSI breakpoints, marked c: breakpoints for β-lactam alone; for MIC50: Pseudomonas aeruginosa, fixed concentration (μg/mL) in label, read-out: MIC50
# [5] = system: E. coli CDC-137 (NDM-6), PBP3 mutations; assay: MIC, broth microdilution; type: cell-based; settings: Escherichia coli, fixed BLI concentration (μg/mL) in parentheses in label
# [6] = system: E. coli CDC-150 (NDM-5), PBP3 mutations; assay: MIC, broth microdilution; type: cell-based; settings: Escherichia coli, fixed BLI concentration (μg/mL) in parentheses in label
# [7] = system: E. coli CDC-435 (NDM-1), PBP3 mutations; assay: MIC, broth microdilution; type: cell-based; settings: Escherichia coli, fixed BLI concentration (μg/mL) in parentheses in label
# [8] = system: Staphylococcus aureus KUB4690/methicillin-resistant; assay: MIC, reference strains of aerobic bacteria; type: cell-based
# [9] = system: Enterococcus faecium NCTC 12204; assay: MIC, reference strains of aerobic bacteria; type: cell-based; settings: NCTC12204
# [10] = system: Streptococcus pneumoniae ATCC 49619; assay: MIC, reference strains of aerobic bacteria; type: cell-based; settings: ATCC49619
# [11] = system: Streptococcus pyogenes ATCC 12344; assay: MIC, reference strains of aerobic bacteria; type: cell-based; settings: ATCC12344
# [12] = system: Streptococcus agalactiae ATCC 13813; assay: MIC, reference strains of aerobic bacteria; type: cell-based; settings: ATCC13813
# [13] = system: Streptococcus mitis GTC495 (ATCC 49456); assay: MIC, reference strains of aerobic bacteria; type: cell-based; settings: ATCC49456
# [14] = system: Streptococcus pseudoporcinus ATCC BAA-1381; assay: MIC, reference strains of aerobic bacteria; type: cell-based; settings: ATCCBAA1381
# [15] = system: Escherichia coli ATCC 25922; assay: MIC, reference strains of aerobic bacteria; type: cell-based; settings: ATCC25922
# [16] = system: Klebsiella pneumoniae ATCC 700603; assay: MIC, reference strains of aerobic bacteria; type: cell-based; settings: ATCC700603
# [17] = system: Klebsiella oxytoca KUB4313; assay: MIC, reference strains of aerobic bacteria; type: cell-based
# [18] = system: Acinetobacter calcoaceticus NBRC12552 (ATCC 14987); assay: MIC, reference strains of aerobic bacteria; type: cell-based
# [19] = system: Stenotrophomonas maltophilia KUB3619; assay: MIC, reference strains of aerobic bacteria; type: cell-based
# [20] = system: Pseudomonas aeruginosa ATCC 27853; assay: MIC, reference strains of aerobic bacteria; type: cell-based; settings: ATCC27853
# [21] = system: Citrobacter freundii ATCC 8090; assay: MIC, reference strains of aerobic bacteria; type: cell-based; settings: ATCC8090
# [22] = system: Providencia rettgeri ATCC 9250; assay: MIC, reference strains of aerobic bacteria; type: cell-based; settings: ATCC9250
# [23] = system: Enterobacter hormaechei ATCC BAA-2082; assay: MIC, reference strains of aerobic bacteria; type: cell-based; settings: ATCCBAA2082
# [24] = system: Enterobacter cloacae NBRC 13535 (ATCC 13047); assay: MIC, reference strains of aerobic bacteria; type: cell-based
# [25] = system: Proteus mirabilis NBRC 3849 (NCTC 6197); assay: MIC, reference strains of aerobic bacteria; type: cell-based
# [26] = system: Proteus vulgaris ATCC 6380; assay: MIC, reference strains of aerobic bacteria; type: cell-based; settings: ATCC6380
# [27] = system: Serratia marcescens NBRC 12648 (ATCC 14756); assay: MIC, reference strains of aerobic bacteria; type: cell-based
# [28] = system: MEM-nonsusceptible Enterobacterales with metallo-carbapenemases; assay: MIC, broth microdilution; type: cell-based; settings: for CLSI MIC interpretation I (intermediate) / CLSI MIC interpretation R (resistant) / CLSI MIC interpretation S (susceptible): CLSI breakpoints, marked c: breakpoints for β-lactam alone; for MIC50 / MIC90: fixed concentration (μg/mL) in label
# [29] = cited from earlier work
# [30] = All Enterobacterales (207), cefiderocol 205 isolates, CLSI breakpoints, marked c: breakpoints for β-lactam alone, tigecycline: FDA breakpoints
# [31] = All Enterobacterales (207), cefiderocol 205 isolates, fixed concentration (μg/mL) in label
# [32] = Enterobacterales with metallo-carbapenemases (47), CDC AR Bank, CLSI breakpoints, marked c: breakpoints for β-lactam alone
# [33] = Enterobacterales with metallo-carbapenemases (47), CDC AR Bank
# [34] = Enterobacterales with metallo-carbapenemases (74), cefiderocol 73 isolates, CLSI breakpoints, marked c: breakpoints for β-lactam alone, tigecycline: FDA breakpoints
# [35] = Enterobacterales with metallo-carbapenemases (74), cefiderocol 73 isolates
# [36] = Acinetobacter baumannii (55), CLSI breakpoints, marked c: breakpoints for β-lactam alone
# [37] = Pseudomonas aeruginosa (96), CLSI breakpoints, marked c: breakpoints for β-lactam alone
# [38] = Ceftolozane/tazobactam-nonsusceptible Pseudomonas aeruginosa (45)
# [39] = Imipenem/relebactam-nonsusceptible Pseudomonas aeruginosa (43)
# [40] = MEM-nonsusceptible Pseudomonas aeruginosa (76)
# [41] = MEM-nonsusceptible Enterobacterales with metallo-carbapenemases (41), CDC AR Bank
# [42] = MEM-nonsusceptible Enterobacterales with metallo-carbapenemases (55), cefiderocol 54 isolates, tigecycline: FDA breakpoints
smiles,measurement,setting,value
"C[C@@H](O)[C@H]1C(=O)N2C(C(=O)O)=C(S[C@@H]3CN[C@H](C(=O)N(C)C)C3)[C@H](C)[C@H]12 [MEM, meropenem]",CLSI MIC interpretation I (intermediate),[1]; [30],11.1%
same,CLSI MIC interpretation R (resistant),[1]; [30],50.2%
same,CLSI MIC interpretation S (susceptible),[1]; [30],38.6%
same,MIC50,[1]; [31],4 µg/mL
same,MIC90,[1]; [31],32 µg/mL
same,MIC50,[1]; read-out: MIC50,4 µg/mL
same,MIC90,[1]; read-out: MIC90,32 µg/mL
same,CLSI MIC interpretation I (intermediate),[2]; [32],10.6%
same,CLSI MIC interpretation R (resistant),[2]; [32],76.6%
same,MIC50,[2]; [33],16 µg/mL
same,MIC90,[2]; [33],> 32 µg/mL
same,CLSI MIC interpretation I (intermediate),[2]; [34],9.5%
same,CLSI MIC interpretation R (resistant),[2]; [34],64.9%
same,CLSI MIC interpretation S (susceptible),[2]; [34],25.7%
same,MIC50,[2]; [35],8 µg/mL
same,MIC90,[2]; [35],> 32 µg/mL
same,CLSI MIC interpretation I (intermediate),[3]; [36],5.5%
same,CLSI MIC interpretation R (resistant),[3]; [36],89.1%
same,CLSI MIC interpretation S (susceptible),[3]; [36],5.5%
same,MIC50,"[3]; Acinetobacter baumannii (55), fixed concentration (μg/mL) in label",32 µg/mL
same,MIC50,"[3]; Acinetobacter baumannii, read-out: MIC50",32 µg/mL
same,CLSI MIC interpretation I (intermediate),96 P. aeruginosa; [37],11.5%
same,CLSI MIC interpretation R (resistant),96 P. aeruginosa; [37],67.7%
same,CLSI MIC interpretation S (susceptible),96 P. aeruginosa; [37],20.8%
same,MIC50,"96 P. aeruginosa; Pseudomonas aeruginosa (96), fixed concentration (μg/mL) in label",16 µg/mL
same,MIC50,"96 P. aeruginosa; Pseudomonas aeruginosa, read-out: MIC50",16 µg/mL
same,CLSI MIC interpretation I (intermediate),[4]; [38],6.7%
same,CLSI MIC interpretation R (resistant),[4]; [38],91.1%
same,CLSI MIC interpretation S (susceptible),[4]; [38],2.2%
same,CLSI MIC interpretation I (intermediate),[4]; [39],4.7%
same,CLSI MIC interpretation R (resistant),[4]; [39],95.3%
same,CLSI MIC interpretation S (susceptible),[4]; [39],0%
same,CLSI MIC interpretation I (intermediate),[4]; [40],14.5%
same,CLSI MIC interpretation R (resistant),[4]; [40],85.5%
same,CLSI MIC interpretation S (susceptible),[4]; [40],0%
same,MIC50,[4]; [38],64 µg/mL
same,MIC50,[4]; [39],64 µg/mL
same,MIC50,[4]; [40],16 µg/mL
same,MIC,[5],32 µg/mL
same,MIC,[6],> 32 µg/mL
same,MIC,[7],32 µg/mL
same,MIC,[8],32 µg/mL
same,MIC,[9],32 µg/mL
same,MIC,[10],0.06 µg/mL
same,MIC,[11],≤ 0.03 µg/mL
same,MIC,[12],≤ 0.03 µg/mL
same,MIC,[13],≤ 0.03 µg/mL
same,MIC,[14],≤ 0.03 µg/mL
same,MIC,[15],≤ 0.03 µg/mL
same,MIC,[16],≤ 0.03 µg/mL
same,MIC,[17],≤ 0.03 µg/mL
same,MIC,[18],0.12 µg/mL
same,MIC,[19],> 32 µg/mL
same,MIC,[20],0.25 µg/mL
same,MIC,[21],≤ 0.03 µg/mL
same,MIC,[22],0.06 µg/mL
same,MIC,[23],4 µg/mL
same,MIC,[24],0.12 µg/mL
same,MIC,[25],≤ 0.03 µg/mL
same,MIC,[26],≤ 0.03 µg/mL
same,MIC,[27],≤ 0.03 µg/mL
same,CLSI MIC interpretation I (intermediate),[28]; [41],12.2%
same,CLSI MIC interpretation R (resistant),[28]; [41],87.8%
same,CLSI MIC interpretation S (susceptible),[28]; [41],0%
same,MIC50,[28]; [41],16 µg/mL
same,MIC90,[28]; [41],>32 µg/mL
same,CLSI MIC interpretation I (intermediate),[28]; [42],12.7%
same,CLSI MIC interpretation R (resistant),[28]; [42],87.3%
same,CLSI MIC interpretation S (susceptible),[28]; [42],0%
same,MIC50,"[28]; MEM-nonsusceptible Enterobacterales with metallo-carbapenemases (55), cefiderocol 54 isolates, read-out: MIC50",16 µg/mL
same,MIC90,"[28]; MEM-nonsusceptible Enterobacterales with metallo-carbapenemases (55), cefiderocol 54 isolates, read-out: MIC90",> 32 µg/mL
same,human protein binding,[29],2%
